Reference: PubChem BioAssay (NCI)
“And” between values parts separate entries of the source, which are not always exact repeats. Equal entries are not always repeated.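 How tested: cells in 96-well plates exposed to compound for 48 hours at five concentrations. Abbreviation: GI50, concentration required for 50% inhibition of growth. TGI marks complete inhibition of growth.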

Tests used:
Assay in all cases: DTP human tumour cell line panel, 48 h
NCI-H226 lung = system: NCI-H226 lung
SNB-75 CNS = system: SNB-75 CNS
HT29 colon = system: HT29 colon
TK-10 renal = system: TK-10 renal
U251 CNS = system: U251 CNS
HCT-116 colon = system: HCT-116 colon
OVCAR-8 ovarian = system: OVCAR-8 ovarian
SK-OV-3 ovarian = system: SK-OV-3 ovarian
SW-620 colon = system: SW-620 colon
SN12C renal = system: SN12C renal

| SMILES | GI50 (NCI-H226 lung) | TGI (NCI-H226 lung) | GI50 (SNB-75 CNS) | TGI (SNB-75 CNS) | GI50 (HT29 colon) | TGI (HT29 colon) | GI50 (TK-10 renal) | TGI (TK-10 renal) | GI50 (U251 CNS) | TGI (U251 CNS) | GI50 (HCT-116 colon) | TGI (HCT-116 colon) | GI50 (OVCAR-8 ovarian) | TGI (OVCAR-8 ovarian) | GI50 (SK-OV-3 ovarian) | TGI (SK-OV-3 ovarian) | GI50 (SW-620 colon) | TGI (SW-620 colon) | GI50 (SN12C renal) | TGI (SN12C renal) |
| --- | --- | --- | --- | --- | --- | --- | --- | --- | --- | --- | --- | --- | --- | --- | --- | --- | --- | --- | --- | --- |
| CCN(CC)Cc1cc2[nH]c3c4ccc(Cl)cc4ncc3c2cc1OC | 14.4 µM and 15.1 µM | 28.8 µM and 28.5 µM | 1.61 µM and 1.81 µM | 3.92 µM and 3.88 µM | 1.78 µM and 1.91 µM | 5.6 µM and 4.82 µM | 5.4 µM and 2.62 µM | 11.2 µM and 5.62 µM | 2.18 µM and 2.16 µM | 5.97 µM and 5.39 µM | 1.85 µM and 1.65 µM | 5.92 µM and 3.15 µM | 3.63 µM and 2.5 µM | 12.2 µM and 7.41 µM | 14.2 µM and 3.63 µM | 27.3 µM and 12.1 µM | 2.3 µM and 1.91 µM | 6.72 µM and 4.44 µM | 10.8 µM and 13.7 µM | 22.7 µM and 26.7 µM |
| Cc1cc(Cl)nc(N(CCCNc2ccnc3cc(Cl)ccc23)Cc2ccco2)n1 | 1.3 µM | 6.91 µM | 2.13 µM | 11.2 µM | 1.38 µM | 6.46 µM | 2.7 µM | 11.1 µM | 2.07 µM | 6.15 µM | 1.42 µM | 4.17 µM | 2.05 µM | 6.31 µM | 2.45 µM | 8.22 µM | 2.5 µM | 10.3 µM | 2.45 µM | 9.87 µM |
| Cn1cc(C2=C(c3cn(CCCCCSC(=N)N)c4ccccc34)C(=O)NC2=O)c2ccccc21 | 4.09 µM | 9.96 µM | 1.01 µM | 4.36 µM | 1.11 µM | 4.03 µM | 2.66 µM | 5.71 µM | 2.5 µM | 5.65 µM | 1.08 µM | 4.53 µM | 3.61 µM | 10.4 µM | 2.99 µM | 6.16 µM | 2.96 µM | 6.54 µM | 2.67 µM | 6.01 µM |
| Brc1ccc2ns[s+]c2c1 | – | > 100 µM | – | > 100 µM | – | > 100 µM | – | > 100 µM | – | > 31.6 µM | – | > 100 µM | – | > 100 µM | – | > 100 µM | – | > 100 µM | – | > 100 µM |
| COc1ccc(N(C)c2nc(N)nc3sc4c(c23)CCCC4)cc1 | 0.616 µM | 22.3 µM | < 0.01 µM | 13.2 µM | < 0.01 µM | 12.1 µM | < 0.0278 µM | 22 µM | < 0.0114 µM | 15 µM | < 0.01 µM | 11.3 µM | < 0.0171 µM | 14.9 µM | < 0.013 µM | 14.2 µM | < 0.01 µM | 16.4 µM | < 0.01 µM | 14 µM |
| CN1CSC(=S)N(Cc2ccccc2)C1 | 70.5 µM | > 100 µM | 5.81 µM | 65.9 µM | 3.36 µM | 11.6 µM | 3.39 µM | 9.41 µM | 13.5 µM | 30.2 µM | 4.49 µM | 15.6 µM | 25.2 µM | > 100 µM | > 100 µM | > 100 µM | 3.16 µM | 12.4 µM | 15.4 µM | 35.7 µM |
| CN(Cc1cnc2nc(N)nc(N)c2n1)c1ccc(C(=O)NC(CCC(=O)O)C(=O)O)cc1Br (centres undefined) | < 0.01 µM | > 96.4 µM | – | 5.06 µM | < 0.01 µM | > 100 µM | < 0.01 µM | > 100 µM | < 0.0134 µM | > 100 µM | < 0.01 µM | 2.42 µM | < 0.01 µM | > 100 µM | 0.047 µM | > 100 µM | < 0.01 µM | > 83.9 µM | < 0.01 µM | > 100 µM |
| CC1=C(C(=O)Nc2cc(F)c(F)cc2F)C(c2ccc([N+](=O)[O-])cc2)C(C(=O)Nc2cc(F)c(F)cc2F)=C(C)N1 | – | > 100 µM | – | 63 µM | – | > 100 µM | – | 95.1 µM | – | > 100 µM | – | > 100 µM | – | > 100 µM | – | > 100 µM | – | > 100 µM | – | > 100 µM |
| O=C(Nc1nc2ccccc2s1)Nc1ccc([N+](=O)[O-])cc1Cl | 5.58 µM | 13.1 µM | 1.87 µM | 5.36 µM | 7.3 µM | 21.9 µM | 3.18 µM | 7.87 µM | 2.13 µM | 4.75 µM | 2.12 µM | 4.54 µM | 2.13 µM | 4.99 µM | 8.52 µM | 22.2 µM | 2.86 µM | 7.82 µM | 4.36 µM | 9.53 µM |
| CC[C@H](C)[C@H](NC(=O)CN(C)C)C(=O)N(C)[C@H](C[C@@H](OC(C)=O)c1nc(C(=O)NC23CC(C(=O)OC)(C2)C3)cs1)C(C)C | > 25 µM | > 25 µM | 0.0883 µM | > 25 µM | 0.102 µM | > 25 µM | > 25 µM | > 25 µM | 0.417 µM | > 25 µM | 0.381 µM | > 25 µM | 0.46 µM | > 25 µM | 1.64 µM | > 25 µM | 0.163 µM | > 25 µM | 0.268 µM | > 25 µM |
| CN(CC(=O)N(Cc1ccc(C2CCCCC2)cc1)c1ccc(C(=O)O)cc1)S(=O)(=O)c1c(F)c(F)c(F)c(F)c1F | 2.49 µM | 5.51 µM | 1.61 µM | 2.96 µM | 2.01 µM | 4.11 µM | 2.75 µM | 10.5 µM | 1.86 µM | 3.31 µM | 1.93 µM | 3.68 µM | 2.5 µM | 5.79 µM | 1.93 µM | 3.8 µM | 2.03 µM | 4.05 µM | 2.22 µM | 4.88 µM |
| O=P(O)(O)C1(P(=O)(O)O)CC1 | – | > 100 µM | – | > 100 µM | – | > 100 µM | – | > 100 µM | – | > 100 µM | – | > 100 µM | – | > 100 µM | – | > 100 µM | – | > 100 µM | – | > 100 µM |
| CC1=C(C(=O)Nc2ccc(Cl)c(C(=O)OC(C)C)c2)SCCO1 | – | > 77.4 µM | – | > 100 µM | – | 50.8 µM | – | > 100 µM | – | 81.3 µM | – | > 77.4 µM | – | > 100 µM | – | > 81.1 µM | – | > 79.4 µM | – | > 100 µM |
| COc1nnc2ccc(N3CCC(c4ccc(OCCN5CCN(C)C(=O)[C@H]5C)cc4)CC3)nn12 | 2.3 µM | > 67.7 µM | 0.0144 µM | 73.7 µM | 0.0392 µM | > 100 µM | 0.0555 µM | > 70.2 µM | 0.961 µM | > 100 µM | 0.0723 µM | > 100 µM | 0.544 µM | > 100 µM | 0.0774 µM | > 42.1 µM | 5.03 µM | > 100 µM | 0.606 µM | > 100 µM |
